Assay results as given in PubChem BioAssay (NCI).
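Each compound was tested at five concentrations against cells in 96-well plates for 48 hours. At the GI50, growth is halved. TGI marks complete inhibition of growth.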

Tests used:
Assay in all cases: inhibition of tumour cell growth, NCI panel, 48 h
[1] = tested on: 786-0 renal
[2] = tested on: RPMI-8226 leukemia
[3] = tested on: HCT-15 colon
[4] = tested on: SK-MEL-5 melanoma
[5] = tested on: COLO 205 colon
[6] = tested on: SN12C renal
[7] = tested on: MALME-3M melanoma
[8] = tested on: SF-268 CNS

| SMILES | TGI [1] | TGI [2] | TGI [3] | TGI [4] | TGI [5] | TGI [6] | TGI [7] | TGI [8] | GI50 [1] | GI50 [2] | GI50 [3] | GI50 [4] | GI50 [5] | GI50 [6] | GI50 [8] | GI50 [7] |
| --- | --- | --- | --- | --- | --- | --- | --- | --- | --- | --- | --- | --- | --- | --- | --- | --- |
| Fc1cccc(CSc2ncnc3c2ncn3C2CCCS2)c1 (stereo not drawn) | 51.5 µM | 52.1 µM | > 100 µM | 22.5 µM | 24.4 µM | 82 µM | 49.3 µM | > 100 µM |  |  |  |  |  |  |  |  |
| CC1(C)CCC[C@]2(C)c3cc(O)ccc3CC[C@@H]12 | 79.7 µM | 30.4 µM | 35.2 µM | 23.4 µM | 46 µM | 31.3 µM |  | 33.4 µM | 27.3 µM | 12.3 µM | 17.1 µM | 11.3 µM | 20.4 µM | 17.5 µM | 16.4 µM |  |
| O=c1oc(-c2ccccc2)cc2cccc(O)c12 | > 76.9 µM | > 100 µM | > 100 µM | > 100 µM | > 100 µM | 51.2 µM | > 100 µM | > 89.9 µM | 28.7 µM | 34 µM | 19.6 µM | 24 µM | > 100 µM | 19.4 µM | 30.1 µM | 69.4 µM |
| N#Cc1ccc(C2C3=C(CCCC3=O)OC3=C2C(=O)c2ccccc2C3=O)cc1 (stereo not drawn) | 3.76 µM | 7.12 µM | 3.71 µM | 3.25 µM | 3.63 µM | 3.16 µM | 3.05 µM | 5.04 µM | 1.87 µM | 2.3 µM | 1.6 µM | 1.72 µM | 1.86 µM | 1.16 µM | 1.97 µM | 1.55 µM |
| C[C@]1(C(=O)O)N[C@H](C(=O)O)CS1 | > 1000 µM | > 1000 µM | > 1000 µM | 270 µM | > 1000 µM |  | > 1000 µM | > 1000 µM | > 1000 µM | > 1000 µM | > 1000 µM | 1.48 µM | > 1000 µM |  | > 1000 µM | > 1000 µM |
| CN1CCN(C(=O)c2c(NC(=O)NS(=O)(=O)c3ccccc3)sc3c2CCCCC3)CC1 | 53 µM | 64.8 µM | 74.6 µM | 40.2 µM |  | 63.8 µM |  | > 100 µM | 19.2 µM | 21.8 µM | 26.3 µM | 20.5 µM |  | 25 µM | 41.2 µM |  |
| Nc1nc2ccc3[nH]ncc3c2c2c1CCCC2 | 9.85 µM |  | 7.22 µM | 4.08 µM | 10.1 µM | 8.93 µM | 5.13 µM | 6.18 µM | 2.15 µM |  | 1.88 µM | 1.54 µM | 2.09 µM | 1.91 µM | 1.88 µM | 2.36 µM |
| O=CC(Br)C(Br)c1ccccc1 (stereo not drawn) | 6.46 µM | 5.39 µM | 2.93 µM | 13.8 µM | 4.55 µM | 11.4 µM |  | 16 µM | 2.5 µM | 2.14 µM | 0.913 µM | 3.58 µM | 2.17 µM | 3.06 µM | 4.2 µM |  |
